The source of these data is US11020462B2, “Methods for treatment of diseases” (SERPIN PHARMA, LLC, priority 2015, dated 2021).

pIC50: −log10 of the molar value. “And” between values parts separate entries of the source, which are not always exact repeats. Equal entries are not always repeated. “Also recorded” adds a separate entry of the source. Where two headings read alike, the source gives them in different places.

As usually defined, the Cmax is the maximum level reached in the sampled fluid or tissue. A word on the MRT inf: it is a mean duration of stay, worked out from the concentration-time curve. As a reminder, the AUC is the area under the concentration-time curve, a measure of exposure. Usually pIC50 stands for the IC50 on a negative log10 scale, so that one unit is a factor of ten. The low end stands for a high IC50, the high end for a low IC50.

In one data set the target is T1, recombinant LRP1 protein (Homo sapiens, UniProt Q07954).
T1 construct: purchased R&D Systems, Minneapolis, Minn
T1 sequence (Q07954 with tags, fused parts or gaps limits assumed, species assumed): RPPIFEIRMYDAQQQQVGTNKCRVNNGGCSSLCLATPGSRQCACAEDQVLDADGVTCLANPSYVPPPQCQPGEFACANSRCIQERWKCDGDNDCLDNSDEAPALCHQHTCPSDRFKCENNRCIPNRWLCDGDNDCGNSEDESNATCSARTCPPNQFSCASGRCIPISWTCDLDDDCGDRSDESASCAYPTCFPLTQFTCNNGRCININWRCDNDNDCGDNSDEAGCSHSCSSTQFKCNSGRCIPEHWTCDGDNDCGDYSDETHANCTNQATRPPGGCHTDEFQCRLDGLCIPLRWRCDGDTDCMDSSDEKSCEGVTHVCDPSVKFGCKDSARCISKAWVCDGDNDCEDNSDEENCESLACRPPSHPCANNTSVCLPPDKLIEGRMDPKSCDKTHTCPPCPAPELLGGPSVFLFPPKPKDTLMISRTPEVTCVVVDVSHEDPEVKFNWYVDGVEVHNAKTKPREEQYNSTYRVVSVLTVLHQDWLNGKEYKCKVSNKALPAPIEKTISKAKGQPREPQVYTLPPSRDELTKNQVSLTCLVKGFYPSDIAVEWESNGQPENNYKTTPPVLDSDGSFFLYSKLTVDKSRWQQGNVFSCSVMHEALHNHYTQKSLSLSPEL
The data set is described as follows: in vitro binding of biotin-peptide to recombinant LRP1 (streptavidin bead pull-down, western blot). The method, then:
An in vitro assay was performed to examine SP163M binding to LRP1. To perform the assay, recombinant LRP1 protein (1 μg/ml) (R&D Systems, Minneapolis, Minn.) was incubated on ice in the presence of biotin-SP163M (1-5 μg/ml) at 4° C. for 1 hour. This mixture was then incubated with 1 mg/ml M280 Streptavidin Dynabeads (Invitrogen, Carlsbad, Calif.) for 1.5 hours at 4° C. Dynabeads were washed in PBS+0.1% Tween20 and boiled in SDS loading buffer for 5 minutes. The supernatants were separated on NuPAGE 4-12% Bis-Tris gels (Invitrogen) and transferred to nitrocellulose membranes. The membranes were probed with anti-LRP1 (LRP-1 Cluster II Affinity Purified Polyclonal Ab, R&D, Minneapolis, Minn.) and incubated overnight at 4° C. The membranes were then washed 3 times with TBS-T and incubated with secondary HRP-coupled anti-goat diluted 1:10,000 in 5% milk TBS-T. The western blots were visualized by chemiluminescence using SuperSignal West Femto Maximum Sensitivity Substrate kit (ThermoScientific) and a Bio Rad Molecular Imager ChemiDoc XRS system (Bio-Rad, Hercules, Calif.).
(In general: Immunoblotting shows a protein as a band on a membrane.)

A further data set relates to TNF-alpha. The data set is described as follows: LPS challenged mouse model of sepsis, TNF-alpha levels. The class given is in vivo. The source says:
Specifically, in these particular fragments, the three most N-terminal and the two most C-terminal amino acids appear to play a role in the anti-inflammatory properties of the peptides as replacement of them appeared to reduce the capacity of the peptides to reduce TNF-alpha levels in a LPS challenged mouse model of sepsis (see, e.g., PCT/US13/20498; which is incorporated by reference herein in its entirety). Accordingly, in some aspects of all embodiments of the invention the peptides are selected from SP40, SP43, SP46, and SP49 the peptide sequences of which are set forth in Table B.
Table C below presents additional exemplary peptides that were used to reduce TNF-alpha levels in mice subjected to an LPS challenge. Also the peptides with capacity to reduce TNF-alpha levels as described in PCT/US13/20498; which is incorporated by reference herein in its entirety, are contemplated for the compositions, pharmaceutical compositions and methods of use and treatment of inflammatory conditions in the present invention.

For the next data set, the target named is T2, LRP1 (Mus musculus, UniProt Q91ZX7).
T2 construct: from tissue; host or cells: living CD1 mice (heart, in vivo)
The data set is described as follows: experimental AMI in mice pretreated with LRP1 blocking antibody. It counts as in vivo. The settings on record: LRP1 antibody clone 5A6 3 mg/kg 16 hours before surgery; SP163M 100 μg or AAT 60 mg/kg i.p. after reperfusion, FIG. 14. The procedure:
To examine the whether LRP1 mediates the cardioprotective effect of SP163M, groups of mice were treated with an LRP1 blocking antibody prior to experimental AMI. The resulting infarct size and LV systolic function were measured
Adult out-bred male CD1 mice (10 weeks of age) supplied by Harlan Sprague Dawley (Indianapolis, Ind.) were used in this study. A single operator (S.T.) skilled in coronary artery surgical ligation in mice performed all surgeries. Experimental AMI was induced by transient coronary artery ligation of the left anterior descending coronary artery for 30 minutes to induce ischemia of the anterior wall and the apex (visible as pallor) followed by reperfusion, and leading to an infarct involving approximately 15% of the left ventricle. […]
Infarct size (reported in FIG. 14A) was measured as previously described. […] The infarcted tissue (appearing white) and the viable tissue (bright red) were measured by computer morphometry using Image Pro Plus 6.0 software (Media Cybernetics, Silver Spring, Md.). […]
LV systolic function (reported in FIG. 14B) was determined as well. […] We measured the left ventricular (LV) end-diastolic and end-systolic areas at B-Mode and the LV end-diastolic diameter (LVEDD), LV end-systolic diameters (LVESD) at M-Mode. LV fractional shortening (FS) and LV ejection fraction (EF) were calculated. […]

The test system of data set [1] is inflammatory reaction that occurs after AMI. The settings on record: pilot clinical study; cited from earlier work.
Data set [2] deals with experimental acute myocardial infarction (AMI) in the mouse. Particulars: AAT at onset of ischemia or at time of reperfusion, cited from earlier work.
A further data set relates to 111 human receptors. In words: human receptor panning, GenSEP Explorer panel of 111 in vitro assay targets. The settings on record: 111 targets. The source says: In addition, we also performed a profile using human receptor panning. The GenSEP Explorer panel contains 111 in vitro assay targets carefully selected to assess drug/chemical biological activities. Assay categories include GPCRs, Voltage-Gated Ion Channels, Ligand-Gated Ion Channels, Neurotransmitter transporters, Nuclear Receptors and Steroids as well as a diverse set of biochemical targets including phosphodiesterases, kinases and other relevant enzymes.

A further data set has as its system healthy mouse. In words: cardiac contractility in the healthy mouse (echocardiography, isoproterenol challenge). The class given is in vivo. The settings on record: FIG. 7. The method, then:
To test the effect of SP163M on heart contractility the following study was conducted. […] SP34 is a peptide with a scrambled sequence of SP16 and is used as a control peptide.
Ten-weeks-old ICR mice were treated with SP163M (100 μg/mouse i.p.), the control peptide SP34 (100 μg/mouse) or the vehicle solution. Echocardiography was used to assess left ventricular (LV) fractional shortening at baseline and after 180 minutes.
Cardiac contractility reserve was tested with isoproterenol challenge (10 ng/kg i.p.), measuring the increase in LV fractional shortening within 5′ of treatment. Each group included at least 6 mice.

Data set [3] is described as follows: SP16 pharmacokinetic profile after intravenous injection (LC/MS/MS of plasma). The class given is in vivo, rats. The method, then: The following table provides the results from an assay for SP16's pharmacokinetic profile. In performing the assay, three normal rats were injected intravenously with 5 mg/kg SP16 and the plasma concentration of SP16 established at 8 time points following the injection. […] The assay was executed by Apredica, Boston, Mass.

The next data set deals with T3, hERG (Homo sapiens, UniProt Q12809).
T3 construct: Apredica, Boston, Mass; (contract laboratory that ran the study)
T3 sequence (Q12809 whole entry): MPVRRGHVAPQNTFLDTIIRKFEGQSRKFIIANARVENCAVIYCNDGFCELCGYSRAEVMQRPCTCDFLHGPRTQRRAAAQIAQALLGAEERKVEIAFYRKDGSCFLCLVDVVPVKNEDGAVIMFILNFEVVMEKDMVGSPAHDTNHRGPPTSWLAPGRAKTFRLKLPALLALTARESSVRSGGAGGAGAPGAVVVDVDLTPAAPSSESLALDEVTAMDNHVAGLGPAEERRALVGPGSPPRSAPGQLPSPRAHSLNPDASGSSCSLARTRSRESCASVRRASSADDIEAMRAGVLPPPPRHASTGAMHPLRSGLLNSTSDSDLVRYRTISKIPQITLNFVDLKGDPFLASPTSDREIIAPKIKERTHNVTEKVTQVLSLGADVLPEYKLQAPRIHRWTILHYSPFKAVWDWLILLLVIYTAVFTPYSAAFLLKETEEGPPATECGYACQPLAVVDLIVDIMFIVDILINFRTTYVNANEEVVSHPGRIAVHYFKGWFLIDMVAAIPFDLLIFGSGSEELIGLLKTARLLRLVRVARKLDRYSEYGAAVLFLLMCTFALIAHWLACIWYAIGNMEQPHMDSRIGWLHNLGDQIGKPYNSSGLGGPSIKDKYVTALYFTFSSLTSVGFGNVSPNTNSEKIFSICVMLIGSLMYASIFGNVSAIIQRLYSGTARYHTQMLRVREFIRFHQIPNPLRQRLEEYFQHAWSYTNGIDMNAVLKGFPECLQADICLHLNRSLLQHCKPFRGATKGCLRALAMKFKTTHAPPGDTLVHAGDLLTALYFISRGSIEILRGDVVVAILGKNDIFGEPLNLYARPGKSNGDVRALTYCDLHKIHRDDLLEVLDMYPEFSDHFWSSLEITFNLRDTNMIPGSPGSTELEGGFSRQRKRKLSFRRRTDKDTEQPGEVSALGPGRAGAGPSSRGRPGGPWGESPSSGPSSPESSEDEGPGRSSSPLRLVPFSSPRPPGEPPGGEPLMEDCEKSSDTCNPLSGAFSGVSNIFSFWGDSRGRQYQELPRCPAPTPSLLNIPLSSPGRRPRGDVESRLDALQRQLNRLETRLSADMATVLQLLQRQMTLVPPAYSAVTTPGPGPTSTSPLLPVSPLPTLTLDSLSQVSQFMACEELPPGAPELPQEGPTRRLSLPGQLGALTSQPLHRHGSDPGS
The data set is described as follows: cell-based. It counts as cell-based.

Setting [4] is: rat, in vivo, SP16, IV (5 mg/kg), normal rats.

As to “A A A N K P F V F L M I E Q N T K (AAANKPFVFLMIEQNTK; listed as Homo sapiens) [SP37]”, the “binding to LRP1 (statement without method)” value in the data set with recombinant LRP1 protein is recorded as “bind LRP1”.

On to “V K F N K P F V F L M I A A A T K (VKFNKPFVFLMIAAATK; listed as Homo sapiens) [SP49]”, for which the anti-inflammatory effect entry in the data set with TNF-alpha was “particularly good anti-inflammatory effect”.

As to “V K F N K P F V F L M I E Q A A A (VKFNKPFVFLMIEQAAA; listed as Homo sapiens) [SP51]”, the “binding to LRP1 (statement without method)” value in the data set with recombinant LRP1 protein was “bind LRP1”.

With “V K F N K P A A A L M I E Q N T K (VKFNKPAAALMIEQNTK; listed as Homo sapiens) [SP43]”, in the data set on TNF-alpha, the anti-inflammatory effect entry is on record as “particularly good anti-inflammatory effect”.

Consider “V K F N K P F V F A A A E Q N T K (VKFNKPFVFAAAEQNTK; listed as Homo sapiens) [SP46]”, for which, in the data set with TNF-alpha, the anti-inflammatory effect result is reported as “particularly good anti-inflammatory effect”.

“AAT: plasma derived alpha-1 antitrypsin (AAT) (Aralast N P, Baxter); circulating serum protein, parent of SP16”: in the data set with LRP1, the “protective effects (infarct size, LV systolic function) after LRP1 blocking antibody” value is “eliminates the cardioprotective effects; also recorded: eliminated the protective effects”. The “safety and efficacy in blocking the inflammatory reaction after AMI” value in [1] is “preliminary safety and efficacy”. In addition, the infarct size result in [2] (vs albumin, FIG. 3) is on record as “significantly smaller infarct size; also recorded: reduces infarct size”. Further, the “cardiac healing and remodeling” value in data set [2] is “more favorable cardiac healing and remodeling”.

Turning to `CC[C@H](C)[C@H](NC(=O)[C@H](CCSC)NC(=O)[C@H](CC(C)C)NC(=O)[C@H](Cc1ccccc1)NC(=O)[C@@H](NC(=O)[C@H](Cc1ccccc1)NC(=O)[C@@H]1CCCN1C(=O)[C@H](CCCCN)NC(=O)[C@H](CC(N)=O)NC(=O)[C@H](Cc1ccccc1)NC(=O)[C@H](CCCCN)NC(=O)[C@@H](N)C(C)C)C(C)C)C(=O)N[C@@H](CCC(=O)O)C(=O)N[C@@H](CCC(N)=O)C(=O)N[C@@H](CC(N)=O)C(=O)N[C@H](C(=O)N[C@@H](CCCCN)C(=O)O)[C@@H](C)O` [SP16], the “effect on the human receptor panel (in words)” value in the data set on 111 human receptors is listed as “not able to identify any hits; also recorded: no effect on 111 human receptors”. Besides, the heart contractility entry with healthy mouse is “does not affect heart contractility”. In addition, the “Last Time point” value in [3] (SP16, IV (5 mg/kg), normal rats) came to 8.0. Besides, in data set [3] (rat, in vivo, iv, 5 mg/kg intravenously, three normal rats), the highest level (Cmax) was 2500 ng/mL. Besides, the half-life in data set [3] (rat, in vivo, iv, 5 mg/kg intravenously, three normal rats, read-out: T1/2 (half-life) (converted)) is 1.9 h. In [3] (setting [4]), this compound returned a C0 of 2500 ng/mL and a mean residence time (MRT inf) of 1.1 h. Further, in data set [3] (rat, in vivo, SP16, IV (5 mg/kg), normal rats, read-out: AUC to Last), the area under the curve (AUC) stood at 900 ng·h/mL. The clearance in [3] (rat, in vivo, SP16, IV (5 mg/kg), normal rats, read-out: Total CL (converted)) is 2.33 mL/min and 9.7 mL/min/kg. For the same compound, the Vd in data set [3] (rat, in vivo, SP16, IV (5 mg/kg), normal rats, read-out: Vss) stood at 0.149 L. In data set [3] (rat, plasma, SP16, IV (5 mg/kg), normal rats, read-out: V), the Vd is 0.374 L. Also, the pIC50 against hERG is < 4.60. The “comment: concentration-dependent inhibition of hERG observed or not” value at hERG (0.008-25 μM) is reported as “No concentration-dependent”. Further, the activity at 0.008 µM on hERG (hERG, 0.008 μM) came to 89%. The compound also had an activity at 0.04 µM at hERG (hERG, 0.04 μM) of 95%. At hERG (hERG, 0.2 μM), this compound yielded an activity at 0.2 µM of 95%. Further, on hERG (hERG, 1 μM), the activity at 1 µM is 78%. The activity at 5 µM at hERG (hERG, 5 μM) worked out at 88%. Further, at hERG (hERG, 25 μM), the activity at 25 µM was found to be 89%. The “inhibition of hERG (in words)” value at hERG (up to 25 μM) was “does not impact hERG activity; also recorded: does not inhibit hERG”.

Take “V K F A A A F V F L M I E Q N T K (VKFAAAFVFLMIEQNTK; listed as Homo sapiens) [SP40]”: in the data set with recombinant LRP1 protein, the “binding to LRP1 (statement without method)” value is “bind LRP1”. Further, the anti-inflammatory effect entry in the data set on TNF-alpha is “particularly good anti-inflammatory effect”.
